Results reported in PMC4393083, “Antiviral Activity and Possible Mechanism of Action of Constituents Identified in Paeonia lactiflora Root toward Human Rhinoviruses” (PLoS ONE, 2015).
Like-named read-outs stand apart in the source and are kept apart here.

Assays:
HRV-4 [1] = experiment: Cytopathic effect inhibition assay (MTT), HRV-4 in HeLa cells; format: cell-based, human rhinovirus; details: read-out: IC50 (95% CL) HRV-4
Procedure: Extraction procedures of air-dried root of P. lactiflora were performed as described previously by Ngan et al.. For isolation of active principles, viral CPE inhibition assay toward HRV-4 in HeLa cell was used. […]. Column fractions were monitored by TLC on silica gel plates developed with chloroform and methanol (7:3 by volume) mobile phase. Fractions with similar R f values on the TLC plates were pooled. Active fractions 4 to 5 (EI, 2.44 g) and 7 (EII, 0.569 g) were obtained. The active fraction EI was rechromatographed on a silica gel column by elution with chloroform and methanol (70:30 by volume) to give nine fractions (each about 450 mL). A preparative HPLC was used for separation of constituents from the active fractions 3 to 5 (0.176 g). The column was a 4.6 mm i.d. × 150 mm Eclipse XDB-C18 (Agilent, Santa Clara, CA) using a mobile phase of methanol and water (3:7 by volume) at a flow rate of 0.5 mL/min. Chromatographic separations were monitored using a UV detector at 260 nm. […]. The three antiviral principles were characterized as paeonol (PA) (1), gallic acid (GA) (2), and 1,2,3,4,6-penta-O-galloyl-β-D-glucopyranose (PGG) (3) (Fig 1) by spectroscopic analyses, including MS and NMR. PA (1): compound 1 was isolated as an antibacterial principle from P. lactiflora root in our previous work, and the spectral data of compound 1 was largely identical to the published data. GA (2) was identified on the basis of the following evidence: white powder. UV (MeOH): λmax nm = 260. FT-IR: v max cm^–1 = 3491–3063 (OH stretch), 1608 (aromatic C = C). […] The interpretations of proton and carbon signals of compound 2 were largely consistent with those of Sakar et al.. PGG (3): compound 3 was isolated as an antibacterial principle from P. lactiflora root in our previous work, and the spectral data of compound 3 was largely identical to the published data.
Monolayers of HeLa and MRC5 cells were seeded onto a 96-well culture plate as stated previously. Subsequently, 90 μL media containing several different concentrations (1–1000 μg/mL) of each test material in DMSO was put into the wells, and then 10 μL of 10×TCID50 of the virus stock was added to produce an appropriate CPE within 2 days after infection. Ribavirin served as a reference control and was similarly prepared. Negative controls consisted of the DMSO solution. Viral inhibition rate (VIR) (%) was calculated according to the formula [21], VIR = (A tV—A cV)/(A cd—A cV) × 100, where A tV is the optical density measured with a given concentration of the test compound in HRV infected cells; A cV is the optical density measured for the control untreated HRV infected cells; A cd is the optical density measured for the control untreated HRV uninfected cells.
The CC50 and IC50 values were determined using GraphPad Prism 5 software program (GraphPad Software, La Jolla, CA). […] The selectivity index (SI) was determined as the ratio of CC50 to IC50 [23]. All data represent the mean ± SD of duplicate or triplicate samples of three independent experiments. Statistical analyses were carried out using SAS 9.13 program (SAS Institute, Cary, NC). Data from two groups were analyzed by a Student’s t-test, and multiple groups were analyzed by a one-way analysis of variance and Bonferroni multiple comparison post-test.

HRV-4 particles = experiment: Infectivity of HRV-4 particles (preincubation of virus); format: cell-based, human rhinovirus; details: MRC5 cells, 2 days; for inhibition at 100 µg/mL / inhibition at 20 µg/mL: Human rhinovirus sp.
Procedure: The effects of the test compounds on the infectivity of HRV-4 particles were elucidated as described previously by Choi et al.. […] HRV-4 was preincubated with 100 μg/mL PA, 20 μg/mL PGG, or 100 μg/mL ribavirin for 1 h at 4°C. Monolayers of MRC5 cells were infected with the pretreated or untreated HRV-4 for 1 h at 37°C. Unbound virus was removed by washing the wells with PBS twice, and then cells were incubated in fresh medium supplemented with or without test compounds at 37°C. After 2 days, MTT test and antiviral activity were carried out as stated previously.

HRV-4 [2] = experiment: Real-time qRT-PCR of HRV-4 RNA replication in MRC5 cells; format: cell-based, human rhinovirus; details: MRC5, 2 days after infection; 100 μg/mL PA, 20 μg/mL PGG; vs untreated cultures
Procedure: (§1) To evaluate the level of gene expression, real-time qRT-PCR with SYBR Green dye was carried out. HRV-2 or HRV-4 infected and noninfected cultures of MRC5 monolayers grown in 25 cm^2 cell culture flasks (Corning, NY) were treated with 100 μg/mL PA or 20 μg/mL PGG. After incubation at 37°C and 5% CO2 for 2 days, total RNA was extracted from the culture cells using the RNeasy Plus Mini Kit (Qiagen, Hilden, Germany) according to the manufacturer’s instructions. Contaminated genomic DNA was removed using RQ1 RNase-free DNase (Promega, Madison, WI). Complementary DNA (cDNA) was synthesized using 1 μg total RNA through a reverse transcription reaction using the SuperScript First-Strand Synthesis Kit (Invitrogen, Carlsbad, CA). […] The PCR conditions were as follows: 50°C for 2 min, 95°C for 10 min, and then 50 cycles of 95°C for 15 s and either 60°C [β2-microglobulin (B2M), interleukin (IL)-6, IL-8, LDLR, ICAM-1, HRV-2, and HRV-4] or 58°C (B2M and IL-1β) or 55°C [B2M, Toll-like receptor 3 (TLR3), tumor necrosis factor (TNF), and interferon beta (IFNβ)] for 30 s. mRNA expression level of target gene was normalized to mRNA expression level for the housekeeping gene B2M and analyzed by the 2^–ΔΔCT method using StepOne Software v2.1 and DataAssist Software (Applied Biosystems). […]

TLR3 = TLR3 mRNA expression, qRT-PCR in MRC5; format: cell-based, human; details: MRC5, 2 days after infection; 100 μg/mL PA, 20 μg/mL PGG
Procedure: as §1

[3] = Human rhinovirus sp., HRV4, HeLa
[4] = HRV4, 48 h, 100 μg/mL PA, 20 μg/mL PGG, 100 μg/mL ribavirin, read-out: inhibition rate, continuous presence during infection
[5] = HRV4, virus preincubated 1 h at 4°C with 100 μg/mL PA, 20 μg/mL PGG or 100 μg/mL ribavirin, read-out: inhibition rate, preincubation of HRV-4 particles

SMILES | IC50 (HRV-4 [1]; [3]) [µM] | IC50 (HRV-4 [1]) [µM] | inhibition at 100 µg/mL (HRV-4 particles; [4]) [%] | inhibition rate, preincubation of HRV-4 particles (HRV-4 particles; virus preincubated 1 h at 4°C with 100 μg/mL PA, 20 μg/mL PGG or 100 μg/mL ribavirin) [%] | inhibition at 20 µg/mL (HRV-4 particles; [4]) [%] | inhibition at 20 µg/mL (HRV-4 particles; [5]) [%] | reduction of HRV-4 RNA replication level (HRV-4 [2]) [fold] | TLR3 mRNA expression vs cultures without treatment (TLR3) | inhibition at 100 µg/mL (HRV-4 particles; [5]) [%]
NC(=O)c1ncn([C@@H]2O[C@H](CO)[C@@H](O)[C@H]2O)n1 [Ribavirin, reference compound] | 324 | 324 | 58.2 | 10.0 |  |  |  |  | 
O=C(OC[C@H]1O[C@@H](OC(=O)c2cc(O)c(O)c(O)c2)[C@H](OC(=O)c2cc(O)c(O)c(O)c2)[C@@H](OC(=O)c2cc(O)c(O)c(O)c2)[C@@H]1OC(=O)c1cc(O)c(O)c(O)c1)c1cc(O)c(O)c(O)c1 [PGG, 1,2,3,4,6-penta-O-galloyl-β-D-glucopyranose] | 14.4 | 14.4 |  |  | 54.5 | 11.2 | 15.1 | significantly lower | 
COc1ccc(C(C)=O)c(O)c1 [PA, paeonol] | 514 | 514 | 57.2 |  |  |  | 16.3 | significantly lower | 10.6
